Data: PubChem BioAssay AID212 (DTP/NCI, 2004)
Values joined by “and” are separate entries in the source; they are usually repeats but may differ in a detail not shown here. Equal values may be shown once. Results filed as inconclusive are left out.

Test system: BDF1 mice, colon carcinoma 38 sc, T/C %
Assay: NCI In Vivo Anticancer Drug Screen. Data for tumor model Colon Carcinoma 38 (subcutaneous) in B6D2F1 (BDF1) mice
Conditions: endpoint: median tumor weight (est.), higher = larger tumour
Description: The antitumor activity of compounds was measured in mice bearing transplantable tumors. Survival or tumor size were measured and the results are expressed as the measurement made in the treated group (T) divided by the measurement made in the vehicle treated control group (C). The tumor model used in this assay is Colon Carcinoma 38 (subcutaneous) in B6D2F1 (BDF1) mice

[1] = dose: 25.0 mg/kg/injection, schedule: Q07DX002 (ip), vehicle: saline with Tween-80

CC(=O)OCC1OC([S-])C(OC(C)=O)C(OC(C)=O)C1OC(C)=O.CC[PH+](CC)CC.CC[PH+](CC)CC.[Au].[Au] (stereo not drawn)
T/C (dose: 2.5 mg/kg/injection, schedule: Q07DX002 (ip), vehicle: Klucel (hydroxypropylcellulose) (HPC)): 99 % of control | T/C (dose: 10.0 mg/kg/injection, schedule: Q07DX002 (ip), vehicle: Klucel (hydroxypropylcellulose) (HPC)): 89 % of control and 93 % of control

C[C@]12CCC(=O)C(O)=C1CC[C@@H]1[C@@H]2CC[C@]2(C)C(=O)CC[C@@H]12
T/C (dose: 25.0 mg/kg/injection, schedule: Q07DX002 (ip), vehicle: Klucel (hydroxypropylcellulose) (HPC)): 82 % of control | T/C (dose: 50.0 mg/kg/injection, schedule: Q07DX002 (ip), vehicle: Klucel (hydroxypropylcellulose) (HPC)): 110 % of control and 101 % of control | T/C (dose: 100.0 mg/kg/injection, schedule: Q07DX002 (ip), vehicle: Klucel (hydroxypropylcellulose) (HPC)): 176 % of control and 186 % of control | T/C (dose: 200.0 mg/kg/injection, schedule: Q07DX002 (ip), vehicle: Klucel (hydroxypropylcellulose) (HPC)): 59 % of control and 84 % of control

CS(=O)(=O)CS(=O)(=O)OCCCl
T/C (dose: 1.5 mg/kg/injection, schedule: Q07DX002 (ip), vehicle: saline): 86 % of control | T/C (dose: 3.0 mg/kg/injection, schedule: Q07DX002 (ip), vehicle: saline): 91 % of control | T/C (dose: 6.0 mg/kg/injection, schedule: Q07DX002 (ip), vehicle: saline): 97 % of control | T/C (dose: 12.0 mg/kg/injection, schedule: Q07DX002 (ip), vehicle: saline): 155 % of control | T/C [1]: 73 % of control

CC(=O)OCC1OC(n2ccc(N)nc2=O)C(OC(C)=O)C1OC(C)=O (stereo not drawn)
T/C (dose: 25.0 mg/kg/injection, schedule: Q07DX002 (ip), vehicle: saline): 113 % of control and 92 % of control | T/C (dose: 50.0 mg/kg/injection, schedule: Q07DX002 (ip), vehicle: saline): 97 % of control and 104 % of control | T/C (dose: 800.0 mg/kg/injection, schedule: Q07DX002 (ip), vehicle: saline): 30 % of control and 36 % of control

Cc1ccc(NCC2(/N=C/c3ccccc3)OC(CO)C(O)C2O)cc1 (stereo not drawn)
T/C (dose: 12.5 mg/kg/injection, schedule: Q07DX003 (ip), vehicle: Klucel (hydroxypropylcellulose) (HPC)): 110 % of control | T/C (dose: 25.0 mg/kg/injection, schedule: Q07DX003 (ip), vehicle: Klucel (hydroxypropylcellulose) (HPC)): 69 % of control | T/C (dose: 50.0 mg/kg/injection, schedule: Q07DX003 (ip), vehicle: Klucel (hydroxypropylcellulose) (HPC)): 117 % of control | T/C (dose: 100.0 mg/kg/injection, schedule: Q07DX003 (ip), vehicle: Klucel (hydroxypropylcellulose) (HPC)): 106 % of control | T/C (dose: 200.0 mg/kg/injection, schedule: Q07DX003 (ip), vehicle: Klucel (hydroxypropylcellulose) (HPC)): 59 % of control

NC1=NCN(C2OC(CO)C(O)C2O)C(=O)N1 (stereo not drawn)
T/C (dose: 25.0 mg/kg/injection, schedule: Q07DX003 (ip), vehicle: saline): 57 % of control and 71 % of control | T/C (dose: 50.0 mg/kg/injection, schedule: Q07DX003 (ip), vehicle: saline): 60 % of control and 79 % of control | T/C (dose: 100.0 mg/kg/injection, schedule: Q07DX003 (ip), vehicle: saline): 54 % of control and 75 % of control | T/C (dose: 400.0 mg/kg/injection, schedule: Q07DX003 (ip), vehicle: saline): 57 % of control and 58 % of control | T/C (dose: 600.0 mg/kg/injection, schedule: Q07DX003 (ip), vehicle: saline): 94 % of control | T/C (dose: 1000.0 mg/kg/injection, schedule: Q07DX003 (ip), vehicle: saline): 79 % of control | T/C (dose: 1200.0 mg/kg/injection, schedule: Q07DX003 (ip), vehicle: saline): 63 % of control | T/C (dose: 1400.0 mg/kg/injection, schedule: Q07DX003 (ip), vehicle: saline): 84 % of control | T/C (dose: 1600.0 mg/kg/injection, schedule: Q07DX003 (ip), vehicle: saline): 47 % of control

COc1cc(Cc2nccc3cc(OC)c(OC)cc23)c(C(C)=O)c(OC)c1
T/C (dose: 10.0 mg/kg/injection, schedule: Q07DX002 (ip), vehicle: suspension in saline): 104 % of control | T/C (dose: 20.0 mg/kg/injection, schedule: Q07DX002 (ip), vehicle: saline): 110 % of control | T/C (dose: 20.0 mg/kg/injection, schedule: Q07DX002 (ip), vehicle: suspension in saline): 103 % of control | T/C (dose: 40.0 mg/kg/injection, schedule: Q07DX002 (ip), vehicle: saline): 107 % of control | T/C (dose: 40.0 mg/kg/injection, schedule: Q07DX002 (ip), vehicle: suspension in saline): 59 % of control | T/C (dose: 80.0 mg/kg/injection, schedule: Q07DX002 (ip), vehicle: saline): 82 % of control | T/C (dose: 80.0 mg/kg/injection, schedule: Q07DX002 (ip), vehicle: suspension in saline): 81 % of control | T/C (dose: 160.0 mg/kg/injection, schedule: Q07DX002 (ip), vehicle: saline): 96 % of control | T/C (dose: 320.0 mg/kg/injection, schedule: Q07DX002 (ip), vehicle: saline): 74 % of control

CC1(C)CC1(Br)Br
T/C (dose: 12.5 mg/kg/injection, schedule: Q07DX002 (ip), vehicle: saline with Tween-80): 155 % of control | T/C [1]: 110 % of control and 96 % of control | T/C (dose: 50.0 mg/kg/injection, schedule: Q07DX002 (ip), vehicle: saline with Tween-80): 150 % of control | T/C (dose: 100.0 mg/kg/injection, schedule: Q07DX002 (ip), vehicle: saline with Tween-80): 124 % of control and 106 % of control | T/C (dose: 200.0 mg/kg/injection, schedule: Q07DX002 (ip), vehicle: saline with Tween-80): 155 % of control | T/C (dose: 400.0 mg/kg/injection, schedule: Q07DX002 (ip), vehicle: saline with Tween-80): 107 % of control
